Like-named read-outs stand apart in the source and are kept apart here.
Assays:
Type in all cases: in vivo
[1] = tested on: Beet Armyworm (Spodoptera exigua, LAPHEG); experiment: Bioassay on Beet Armyworm (BAW), 128-well diet tray assay
Outline: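 Diet in each of eight wells received 50 μg/cm^2 of test molecule (90:10 acetone-water, dried), then one to five second-instar larvae were added. Mortality (%) was scored after five to seven days at 25° C. under 14:10 light-dark and averaged across the wells.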

[2] = tested on: Cabbage Looper (Trichoplusia ni, TRIPNI); experiment: Bioassay on Cabbage Looper (CL), 128-well diet tray assay; settings: Trichoplusia ni
Outline: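 Mortality of second instar larvae exposed to diet coated with 50 μg/cm^2 compound (acetone-water 90:10 vehicle, dried); 25° C., 5–7 days.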

[3] = tested on: Yellow Fever Mosquito (Aedes aegypti, AEDSAE); experiment: Bioassay on Yellow Fever Mosquito (YFM), 96-well plate larval assay; settings: for YFM rating: Yellow Fever Mosquito, 96-well plate larval assay; for YFM (Biological Results, rating): Species YFM (Yellow Fever Mosquito)
Outline: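 Compound stocks at 4000 ppm in DMSO were diluted with 90:10 water/acetone, and 15 μL aliquots were dispensed into six replicate plates. About 1-day-old larvae in liver-powder water were added per well. Plates were covered and held at room temperature for 3 days before each well was scored for mortality.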

[4] = Beet Armyworm, 128-well diet tray assay, read-out: BAW rating
[5] = Cabbage Looper, 128-well diet tray assay, read-out: CL rating
[6] = Species BAW (Beet Armyworm), read-out: BAW (Biological Results, rating)
[7] = Species CL (Cabbage Looper), read-out: CL (Biological Results, rating)

Compound	pest or weed control at 50 µg/cm2 [1, 4] [%]	pest or weed control at 50 µg/cm2 [2, 5] [%]	YFM rating [3]	pest or weed control at 50 µg/cm2 [1, 6] [%]	pest or weed control at 50 µg/cm2 [2, 7] [%]	YFM (Biological Results, rating) [3]
O=C(Nc1cc(F)ccc1F)c1cc(NC(=O)C2C(c3cc(Cl)cc(Cl)c3)C2(Cl)Cl)ccc1Cl (stereo not drawn) [PF118, 2-Chloro-5-(trans)-2,2-dichloro-3-(3,5-dichlorophenyl)cyclopropane-1-carboxamido)-N-(2,5-difluorophenyl)benzamide]	50 to 100	50 to 100	B (More than 0-Less than 80)			
Cc1cccc(NC(=O)c2cc(NC(=O)[C@H]3[C@H](c4cc(Cl)cc(Cl)c4)C3(Cl)Cl)ccc2Cl)c1C#N (relative stereo) [F304, 2-Chloro-N-(2-cyano-3-methylphenyl)-5-(trans-2,2-dichloro-3-(3,5-dichlorophenyl)cyclopropane-1-carboxamido)benzamide]				50 to 100	50 to 100	A (80-100)
Cn1ccc2cccc(NC(=O)c3cc(NC(=O)[C@H]4[C@H](c5cc(Cl)cc(Cl)c5)C4(Cl)Cl)ccc3Cl)c21 (relative stereo) [F531, 2-Chloro-5-(trans)-(2,2-dichloro-3-(3,5-dichlorophenyl)cyclopropane-1-carboxamido)-N-(1-methyl-1H-indol-7-yl)benzamide]	50 to 100	50 to 100	A (80-100)			
N#Cc1cc(F)ccc1NC(=O)c1cc(NC(=O)[C@H]2[C@H](c3ccc(Cl)c(Cl)c3)C2(Cl)Cl)ccc1Cl (relative stereo) [F190, trans-2-Chloro-N-(2-cyano-4-fluorophenyl)-5-(2,2-dichloro-3-(3,4-dichlorophenyl)cyclopropane-1-carboxamido)benzamide]				50 to 100	50 to 100	A (80-100)
CN(C(=O)c1cc(NC(=O)[C@H]2[C@H](c3cc(Cl)c(Cl)cc3Cl)C2(Cl)Cl)ccc1Cl)c1ccc(F)cc1 (relative stereo) [F74, trans-2-Chloro-5-(2,2-dichloro-3-(2,4,5-trichlorophenyl)cyclopropane-1-carboxamido)-N-(4-fluorophenyl)-N-methylbenzamide]				50 to 100	50 to 100	B (More than 0-Less than 80)
N#Cc1cc(F)ccc1NC(=O)c1cc(NC(=O)[C@H]2[C@H](c3ccc(Br)c(Cl)c3)C2(Cl)Cl)ccc1Cl (relative stereo) [F320, 5-(trans-3-(4-Bromo-3-chlorophenyl)-2,2-dichlorocyclopropane-1-carboxamido)-2-chloro-N-(2-cyano-4-fluorophenyl)benzamide]				50 to 100	50 to 100	A (80-100)
O=C(Nc1cc2[nH]ccc2cc1Br)c1cc(NC(=O)C2C(c3cc(Cl)cc(Cl)c3)C2(Cl)Cl)ccc1Cl (stereo not drawn) [F172, N-(5-Bromo-1H-indol-6-yl)-2-chloro-5-(trans)-2,2-dichloro-3-(3,5-dichlorophenyl)cyclopropane-1-carboxamido)benzamide]				50 to 100	50 to 100	B (More than 0-Less than 80)
O=C(Nc1ccc(F)cc1)c1cc(NC(=O)[C@H]2[C@H](c3cc(F)c(Br)c(F)c3)C2(Cl)Cl)ccc1Cl (relative stereo) [F538, 5-(trans-3-(4-bromo-3,5-difluorophenyl)-2,2-dichlorocyclopropane-1-carboxamido)-2-chloro-N-(4-fluorophenyl)benzamide]	50 to 100	50 to 100	A (80-100)			
Nc1cc(F)ccc1NC(=O)c1cc(NC(=O)[C@H]2[C@H](c3ccc(Cl)c(Cl)c3)C2(Cl)Cl)ccc1Cl [F576, N-(2-Amino-4-fluorophenyl)-2-chloro-5-((1R,3R)-2,2-dichloro-3-(3,4-dichlorophenyl)cyclopropane-1-carboxamido)benzamide]	50 to 100	50 to 100	A (80-100)			
C=Cc1ccc(NC(=O)c2cc(NC(=O)[C@H]3[C@H](c4cc(Cl)cc(Cl)c4)C3(Cl)Cl)ccc2Cl)cc1 (relative stereo) [PF16, trans-2-Chloro-5-(2,2-dichloro-3-(3,5-dichlorophenyl)cyclopropane-1-carboxamido)-N-(4-vinylphenyl)benzamide]	50 to 100	50 to 100	A (80-100)			
Nc1cc(F)cc(F)c1NC(=O)c1cc(NC(=O)[C@H]2[C@H](c3cc(Cl)cc(Cl)c3)C2(Cl)Cl)ccc1Cl [F406, N-(2-Amino-4,6-difluorophenyl)-2-chloro-5-((1R,3R)-2,2-dichloro-3-(3,5-dichlorophenyl)cyclopropane-1-carboxamido)benzamide]	50 to 100	50 to 100	A (80-100)			
O=C(Nc1ncc(F)cc1F)c1cc(NC(=O)[C@H]2[C@H](c3ccc(F)c(Cl)c3)C2(Cl)Cl)ccc1Cl [F316, 2-Chloro-5-((1R,3R)-2,2-dichloro-3-(3-chloro-4-fluorophenyl)cyclopropane-1-carboxamido)-N-(3,5-difluoropyridin-2-yl)benzamide]				50 to 100	50 to 100	A (80-100)
O=C(Nc1ccc([S+]([O-])CC(F)(F)F)cc1)c1cc(NC(=O)[C@H]2[C@H](c3cc(Cl)cc(Cl)c3)C2(Cl)Cl)ccc1Cl (relative stereo) [PF18, trans-2-Chloro-5-(2,2-dichloro-3-(3,5-dichlorophenyl)cyclopropane-1-carboxamido)-N-(4-((2,2,2-trifluoroethyl)sulfinyl)phenyl)benzamide]	50 to 100	50 to 100	B (More than 0-Less than 80)			
N#Cc1ccc(Br)cc1NC(=O)c1cc(NC(=O)[C@H]2[C@H](c3cc(Cl)cc(Cl)c3)C2(Cl)Cl)ccc1Cl (relative stereo) [F303, N-(5-Bromo-2-cyanophenyl)-2-chloro-5-(trans-2,2-dichloro-3-(3,5-dichlorophenyl)cyclopropane-1-carboxamido)benzamide]				50 to 100	50 to 100	A (80-100)
Nc1cc(F)ccc1NC(=O)c1cc(NC(=O)[C@H]2[C@H](c3cc(Cl)cc(Cl)c3)C2(Cl)Cl)ccc1Cl (relative stereo) [F361, trans-N-(2-amino-4-fluorophenyl)-2-chloro-5-(2,2-dichloro-3-(3,5-dichlorophenyl)cyclopropane-1-carboxamido)benzamide]				50 to 100	50 to 100	A (80-100)
Nc1ccc2c(c1)CN(C(=O)c1cc(NC(=O)[C@H]3[C@H](c4cc(Cl)cc(Cl)c4)C3(Cl)Cl)ccc1Cl)C2 (relative stereo) [F479, (trans)-N-(3-(5-Aminoisoindoline-2-carbonyl)-4-chlorophenyl)-2,2-dichloro-3-(3,5-dichlorophenyl)cyclopropane-1-carboxamide]	50 to 100	50 to 100	A (80-100)			
Cc1cc(NC(=O)OC(C)(C)C)ccc1NC(=O)c1cc(NC(=O)[C@H]2[C@H](c3ccc(Br)c(Cl)c3)C2(Cl)Cl)ccc1Cl (relative stereo) [F322, tert-Butyl (4-(5-(trans-3-(4-bromo-3-chlorophenyl)-2,2-dichlorocyclopropane-1-carboxamido)-2-chlorobenzamido)-3-methylphenyl)carbamate]				50 to 100	50 to 100	A (80-100)
Cc1cc(NC(=O)OC(C)(C)C)ccc1NC(=O)c1cc(NC(=O)[C@H]2[C@H](c3ccc(F)c(Cl)c3)C2(Cl)Cl)ccc1Cl [F290, tert-Butyl (4-(2-chloro-5-((1R,3R)-2,2-dichloro-3-(3-chloro-4-fluorophenyl)cyclopropane-1-carboxamido)benzamido)-3-methylphenyl)carbamate]				50 to 100	50 to 100	A (80-100)
Nc1cc(F)cc(NC(=O)c2cc(NC(=O)[C@H]3[C@H](c4ccc(F)c(Cl)c4)C3(Cl)Cl)ccc2Cl)c1 [F433, N-(3-Amino-5-fluorophenyl)-2-chloro-5-((1R,3R)-2,2-dichloro-3-(3-chloro-4-fluorophenyl)cyclopropane-1-carboxamido)benzamide]	50 to 100	50 to 100	A (80-100)			
Cc1cc(NC(=O)OC(C)(C)C)ccc1NC(=O)c1cccc(NC(=O)[C@H]2[C@H](c3cc(Cl)cc(Cl)c3)C2(Cl)Cl)c1 (relative stereo) [F263, trans-tert-Butyl (4-(3-(2,2-dichloro-3-(3,5-dichlorophenyl)cyclopropane-1-carboxamido)benzamido)-3-methylphenyl)carbamate]				50 to 100	50 to 100	B (More than 0-Less than 80)
Nc1c(F)cc(NC(=O)c2cc(NC(=O)[C@H]3[C@H](c4cc(Cl)c(Cl)c(Cl)c4)C3(Cl)Cl)ccc2Cl)cc1F [F380, N-(4-Amino-3,5-difluorophenyl)-2-chloro-5-((1R,3R)-2,2-dichloro-3-(3,4,5-trichlorophenyl)cyclopropane-1-carboxamido)benzamide]	50 to 100	50 to 100	A (80-100)			

Reference: US10219516B2, “Molecules having pesticidal utility, and intermediates, compositions, and processes, related thereto” (priority 2015, dated 2019)
